According to PMC6378217, “The lysyl oxidase like 2/3 enzymatic inhibitor, PXS‐5153A, reduces crosslinks and ameliorates fibrosis” (Journal of Cellular and Molecular Medicine, 2018):

Columns and labels:
Opiate μ (OP3, MOP) = Opiate μ (OP3, MOP) (Homo sapiens, UniProt P35372); experiment: Eurofins Hit Profiling Screen; type: binding; settings: 10 μmol/L
[1] = system: fibrotic marker genes in the liver; experiment: CCl4-induced liver fibrosis: mRNA expression of fibrotic markers in whole liver homogenates; type: in vivo, Sprague Dawley rats; settings: PXS-5153A treatment
Experimental: The study was performed by Pharmalegacy with approval from local ethics committee. Sprague Dawley rats were orally administered with 0.25 μL/g Carbon tetrachloride (CCl4) in olive oil solution, starting from day 0, 3 times per week for 6 weeks. Animals were killed 48 hours after the last CCl4 administration. PXS‐5153A was given by oral gavage after 3 weeks of CCl4 administration and continued throughout the remainder of the study at 3 mg/kg (low dose) or 10 mg/kg (high dose) once a day or 10 mg/kg (high dose) three times a week. Alanine aminotransferase (ALT) and aspartate aminotransferase (AST) levels were assessed in the plasma. One lobe of the liver tissue was fixed in 10% formalin, stained for Sirius red and the percentage coverage area was measured. The remainder of the liver was snap frozen and used for protein, hydroxyproline and crosslink analysis.
Total RNA was extracted with the PureLink RNA Mini Kit according to the manufacturer's instructions (Ambion), followed by the cDNA synthesis using SuperScript VILO cDNA Synthesis Kit (Life technologies). Gene expression was measured by the 2^−ΔΔCT method using ABI7500 (Applied Biosystems) with the ABI TaqMan primer sets as specified in the supporting information.
Data was normalised to expression of the internal quantitative control (GAPDH) and expressed as the fold-change compared to the Sham treatment group.

Rolipram = experiment: Eurofins Hit Profiling Screen; type: binding; settings: 10 μmol/L
Sigma σ1 = Sigma σ1 (Homo sapiens, UniProt Q99720); experiment: Eurofins Hit Profiling Screen; type: binding; settings: 10 μmol/L
Chain of Sigma σ1 (Q99720 whole entry): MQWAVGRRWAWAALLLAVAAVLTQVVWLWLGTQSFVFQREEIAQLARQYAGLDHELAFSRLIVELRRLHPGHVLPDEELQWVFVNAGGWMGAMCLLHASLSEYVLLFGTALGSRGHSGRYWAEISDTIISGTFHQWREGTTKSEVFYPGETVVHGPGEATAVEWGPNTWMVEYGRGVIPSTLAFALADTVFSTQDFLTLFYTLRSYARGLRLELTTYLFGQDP

[2] = system: CCl4-induced liver fibrosis; experiment: CCl4-induced liver fibrosis; type: in vivo, Sprague Dawley rats
Experimental: Pellet then underwent acid hydrolysis in 6 mol/L HCl at 100°C for 24 hours. Hydroxyproline and crosslinks were extracted from the hydrolysate using an automated solid phase extraction system (Gilson […] system). After extraction and drying, hydroxyproline and crosslinks were analysed by UHPLC-ESI-MS/MS on a Thermo Dionex UHPLC and TSQ Endura triple quad mass spectrometer. Total protein was quantified in the samples using a commercially available kit (QuickZyme Biosciences, Leiden, The Netherlands). For detailed procedures, see supporting information. The study was performed by Pharmalegacy with approval from local ethics committee. […] Animals were killed 48 hours after the last CCl4 administration. […] Alanine aminotransferase (ALT) and aspartate aminotransferase (AST) levels were assessed in the plasma. One lobe of the liver tissue was fixed in 10% formalin, stained for Sirius red and the percentage coverage area was measured. The remainder of the liver was snap frozen and used for protein, hydroxyproline and crosslink analysis.

Adrenergic β2 = Adrenergic β2 (Homo sapiens, UniProt P07550); experiment: Eurofins Hit Profiling Screen; type: binding; settings: 10 μmol/L
Chain of Adrenergic β2 (P07550 whole entry): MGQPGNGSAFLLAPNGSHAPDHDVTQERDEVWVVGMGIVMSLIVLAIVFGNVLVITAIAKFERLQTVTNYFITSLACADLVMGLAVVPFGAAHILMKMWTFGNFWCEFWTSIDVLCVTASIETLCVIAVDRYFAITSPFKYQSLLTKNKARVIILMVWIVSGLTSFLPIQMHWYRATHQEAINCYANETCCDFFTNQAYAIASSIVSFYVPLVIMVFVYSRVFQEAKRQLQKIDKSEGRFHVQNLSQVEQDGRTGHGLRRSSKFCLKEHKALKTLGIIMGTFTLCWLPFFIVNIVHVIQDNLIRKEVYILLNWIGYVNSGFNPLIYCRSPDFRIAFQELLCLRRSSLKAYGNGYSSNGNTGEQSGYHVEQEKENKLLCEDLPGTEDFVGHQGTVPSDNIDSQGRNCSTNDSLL

Recombinant human LOXL1 = target: T1, Recombinant human LOXL1 (Homo sapiens, UniProt Q08397); experiment: Amplex-Red fluorometric enzymatic activity assay, recombinant human LOXL1; type: biochemical; settings: 30 minute pre-incubation; average of at least three experiments
T1 construct: made in house
T1 sequence (Q08397 96-574): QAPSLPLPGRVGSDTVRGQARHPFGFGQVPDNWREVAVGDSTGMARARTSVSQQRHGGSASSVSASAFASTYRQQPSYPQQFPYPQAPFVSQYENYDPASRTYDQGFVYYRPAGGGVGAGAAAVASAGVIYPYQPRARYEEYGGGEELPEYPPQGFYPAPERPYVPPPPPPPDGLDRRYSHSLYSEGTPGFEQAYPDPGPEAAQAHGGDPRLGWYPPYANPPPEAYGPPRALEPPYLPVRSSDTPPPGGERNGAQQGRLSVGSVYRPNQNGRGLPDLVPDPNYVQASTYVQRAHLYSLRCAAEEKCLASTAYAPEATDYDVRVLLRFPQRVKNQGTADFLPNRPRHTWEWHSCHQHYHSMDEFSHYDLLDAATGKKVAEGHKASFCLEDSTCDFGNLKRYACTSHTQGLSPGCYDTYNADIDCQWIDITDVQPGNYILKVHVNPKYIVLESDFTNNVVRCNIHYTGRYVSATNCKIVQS
Experimental: (§1) The measurement of the enzymatic activity of all lysyl oxidase family members was based on the detection of hydrogen peroxide with an Amplex‐Red oxidation assay, as described in Zhou et al26 Recombinant human semicarbazide sensitive amine oxidase (SSAO/VAP1), diamine oxidase (DAO) and monoamine oxidases A and B (MAO‐A and MAO‐B) assays were performed as previously described.27 For detailed enzymatic procedures, see supporting information.
(§2) The measurement of the enzymatic activity of all lysyl oxidase family members was based on the detection of hydrogen peroxide with an Amplex-Red oxidation assay, as described in Zhou et al.[1]; miniaturised in 384 well format, with the appropriate combination of substrate and assay buffer for each individual enzyme. After a 30 minute pre-incubation of the enzyme at 37 °C with the test compound (or with different incubation times for the time-dependency assay), one volume of reaction mixture containing 120 μM Amplex Red (AR) (Life Technologies), 1.5 U/mL horseradish peroxidase (HRP) (Sigma-Aldrich) and the specific substrate was added to each sample. The relative fluorescence units (RFU) were then measured every 2.5 minutes for 30 minutes at 37°C, excitation 565 nm and emission 590, on a BMG Clariostar Microplate Reader. […]

Recombinant dog LOXL2 = target: T2, Recombinant dog LOXL2 (Canis lupus familiaris, UniProt A0A8I3P9Y5); experiment: Amplex-Red fluorometric enzymatic activity assay, recombinant dog LOXL2; type: biochemical; settings: 30 minute pre-incubation; average of at least three experiments
T2 construct: made in house; host or cells: HEK-293 clones provided by Dr. Fernando Rodríguez Pascual
T2 sequence (A0A8I3P9Y5 1-777): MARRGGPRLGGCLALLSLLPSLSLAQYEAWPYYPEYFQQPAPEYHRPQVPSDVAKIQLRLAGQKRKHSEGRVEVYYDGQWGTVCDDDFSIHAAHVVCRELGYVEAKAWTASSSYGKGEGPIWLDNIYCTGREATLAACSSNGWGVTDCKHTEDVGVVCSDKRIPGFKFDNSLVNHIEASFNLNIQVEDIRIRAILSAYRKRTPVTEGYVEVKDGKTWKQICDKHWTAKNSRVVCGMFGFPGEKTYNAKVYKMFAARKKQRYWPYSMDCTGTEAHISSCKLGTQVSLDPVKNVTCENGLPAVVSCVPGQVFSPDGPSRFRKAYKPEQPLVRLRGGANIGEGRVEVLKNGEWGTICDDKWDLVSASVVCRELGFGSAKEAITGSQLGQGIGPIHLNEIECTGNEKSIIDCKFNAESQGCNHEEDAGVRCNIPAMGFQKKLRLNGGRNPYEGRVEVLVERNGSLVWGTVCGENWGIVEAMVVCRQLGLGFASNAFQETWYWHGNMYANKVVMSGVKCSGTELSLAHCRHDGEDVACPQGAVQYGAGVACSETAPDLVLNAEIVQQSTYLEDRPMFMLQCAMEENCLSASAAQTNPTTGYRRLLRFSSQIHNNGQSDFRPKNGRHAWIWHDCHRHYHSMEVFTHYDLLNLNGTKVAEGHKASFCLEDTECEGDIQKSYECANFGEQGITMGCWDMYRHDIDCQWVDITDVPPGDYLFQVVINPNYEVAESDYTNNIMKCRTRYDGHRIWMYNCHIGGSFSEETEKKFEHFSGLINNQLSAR
Experimental: as §1, §2

Recombinant mouse LOXL2 = target: T3, Recombinant mouse LOXL2 (Mus musculus, UniProt P58022); experiment: Amplex-Red fluorometric enzymatic activity assay, recombinant mouse LOXL2; type: biochemical; settings: 30 minute pre-incubation; average of at least three experiments
T3 construct: purchased R&D Systems
T3 sequence (P58022 26-776): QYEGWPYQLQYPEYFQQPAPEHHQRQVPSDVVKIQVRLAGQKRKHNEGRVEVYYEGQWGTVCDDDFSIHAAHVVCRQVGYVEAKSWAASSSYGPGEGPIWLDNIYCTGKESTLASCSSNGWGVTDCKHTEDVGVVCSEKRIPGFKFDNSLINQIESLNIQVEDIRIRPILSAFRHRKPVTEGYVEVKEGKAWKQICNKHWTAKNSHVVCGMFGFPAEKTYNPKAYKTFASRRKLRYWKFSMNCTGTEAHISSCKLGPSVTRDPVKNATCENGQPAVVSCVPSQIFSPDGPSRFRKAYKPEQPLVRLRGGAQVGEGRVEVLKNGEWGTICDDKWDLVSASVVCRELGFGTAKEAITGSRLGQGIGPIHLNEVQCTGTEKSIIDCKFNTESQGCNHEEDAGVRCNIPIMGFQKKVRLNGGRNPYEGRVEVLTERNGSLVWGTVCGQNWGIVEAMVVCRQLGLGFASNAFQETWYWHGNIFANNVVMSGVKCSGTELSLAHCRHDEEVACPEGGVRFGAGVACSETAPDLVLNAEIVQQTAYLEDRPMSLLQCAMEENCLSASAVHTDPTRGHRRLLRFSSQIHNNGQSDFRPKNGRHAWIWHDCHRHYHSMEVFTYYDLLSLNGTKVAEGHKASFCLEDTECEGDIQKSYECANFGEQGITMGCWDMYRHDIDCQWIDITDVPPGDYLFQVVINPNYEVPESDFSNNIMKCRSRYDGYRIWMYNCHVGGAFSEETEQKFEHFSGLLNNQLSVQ
Experimental: as §1, §2

Cannabinoid CB1 = Cannabinoid CB1 (Homo sapiens, UniProt P21554); experiment: Eurofins Hit Profiling Screen; type: binding; settings: 10 μmol/L
Dopamine D2S = Dopamine D2S (Homo sapiens, UniProt P14416); experiment: Eurofins Hit Profiling Screen; type: binding; settings: 10 μmol/L
Chain of Dopamine D2S (P14416 1-414 isoform P14416-2): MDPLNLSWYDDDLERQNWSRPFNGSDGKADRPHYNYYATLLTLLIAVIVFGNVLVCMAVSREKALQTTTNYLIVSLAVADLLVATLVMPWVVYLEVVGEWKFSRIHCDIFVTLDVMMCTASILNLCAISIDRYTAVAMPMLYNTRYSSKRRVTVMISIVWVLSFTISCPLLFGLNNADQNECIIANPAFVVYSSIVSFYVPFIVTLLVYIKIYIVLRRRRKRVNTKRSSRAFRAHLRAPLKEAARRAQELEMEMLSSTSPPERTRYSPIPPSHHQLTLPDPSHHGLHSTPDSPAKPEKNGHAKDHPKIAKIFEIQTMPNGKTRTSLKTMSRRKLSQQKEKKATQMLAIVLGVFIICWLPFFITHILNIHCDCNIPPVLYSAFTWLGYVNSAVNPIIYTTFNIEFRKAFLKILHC

[3] = target: Transporter, Norepinephrine (NET) (Homo sapiens, UniProt P23975); experiment: Eurofins Hit Profiling Screen; type: binding; settings: 10 μmol/L
Chain of Transporter, Norepinephrine (NET) (P23975 whole entry): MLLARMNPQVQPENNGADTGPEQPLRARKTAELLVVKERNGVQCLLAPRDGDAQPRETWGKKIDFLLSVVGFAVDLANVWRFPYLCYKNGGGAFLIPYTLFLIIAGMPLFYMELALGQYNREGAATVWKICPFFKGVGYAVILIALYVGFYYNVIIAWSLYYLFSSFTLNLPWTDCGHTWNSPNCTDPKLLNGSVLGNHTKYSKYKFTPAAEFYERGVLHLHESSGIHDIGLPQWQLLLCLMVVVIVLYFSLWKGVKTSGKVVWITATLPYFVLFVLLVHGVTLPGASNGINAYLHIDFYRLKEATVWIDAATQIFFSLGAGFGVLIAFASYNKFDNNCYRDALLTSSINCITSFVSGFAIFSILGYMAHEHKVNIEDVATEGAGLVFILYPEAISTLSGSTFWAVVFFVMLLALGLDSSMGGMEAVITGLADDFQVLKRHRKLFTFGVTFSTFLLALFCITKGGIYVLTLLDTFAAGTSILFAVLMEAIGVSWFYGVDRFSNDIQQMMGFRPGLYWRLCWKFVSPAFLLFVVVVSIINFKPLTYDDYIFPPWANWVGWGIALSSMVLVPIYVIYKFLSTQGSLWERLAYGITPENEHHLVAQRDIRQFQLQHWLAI

Nicotinic Acetylcholine = experiment: Eurofins Hit Profiling Screen; type: binding; settings: 10 μmol/L
Muscarinic M2 = Muscarinic M2 (Homo sapiens, UniProt P08172); experiment: Eurofins Hit Profiling Screen; type: binding; settings: 10 μmol/L
Chain of Muscarinic M2 (P08172 whole entry): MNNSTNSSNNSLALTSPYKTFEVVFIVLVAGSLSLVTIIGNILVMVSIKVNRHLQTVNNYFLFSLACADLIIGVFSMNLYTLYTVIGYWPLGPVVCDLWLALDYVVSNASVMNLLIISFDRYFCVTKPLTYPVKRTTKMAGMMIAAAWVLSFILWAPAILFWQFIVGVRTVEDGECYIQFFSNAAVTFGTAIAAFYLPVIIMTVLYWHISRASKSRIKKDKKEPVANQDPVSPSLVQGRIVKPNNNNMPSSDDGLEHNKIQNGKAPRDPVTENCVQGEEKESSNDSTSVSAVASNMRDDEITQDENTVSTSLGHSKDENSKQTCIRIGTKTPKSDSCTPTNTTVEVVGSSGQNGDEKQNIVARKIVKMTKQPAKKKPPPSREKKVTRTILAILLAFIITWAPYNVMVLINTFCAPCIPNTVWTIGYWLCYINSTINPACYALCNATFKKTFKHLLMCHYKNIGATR

Chain of Opiate μ (OP3, MOP) (P35372 whole entry): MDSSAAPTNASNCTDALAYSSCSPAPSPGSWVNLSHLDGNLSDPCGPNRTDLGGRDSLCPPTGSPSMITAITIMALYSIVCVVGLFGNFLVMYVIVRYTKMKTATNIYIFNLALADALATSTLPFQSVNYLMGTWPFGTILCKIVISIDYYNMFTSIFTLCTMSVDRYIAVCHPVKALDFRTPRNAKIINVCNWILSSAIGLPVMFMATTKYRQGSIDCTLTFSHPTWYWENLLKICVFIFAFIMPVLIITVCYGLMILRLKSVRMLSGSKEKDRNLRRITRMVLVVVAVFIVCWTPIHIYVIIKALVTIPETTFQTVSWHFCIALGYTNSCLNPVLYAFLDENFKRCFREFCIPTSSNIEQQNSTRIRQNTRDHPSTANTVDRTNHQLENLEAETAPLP

For `Cc1c(-c2cccc(S(=O)(=O)N(C)C)c2)c2ncccc2n1C/C(F)=C/CN.Cl.Cl` [PXS-5153A], the “% inhibition” value (Opiate μ (OP3, MOP)) was 11%, the “induction of key fibrotic marker genes in the liver” value [1] was “suppressed the induction” and the “% inhibition” value (Rolipram) was 28%. For the same compound, the “% inhibition” value (Sigma σ1) was 8%, the “mature crosslink formation (PYD + DPD)” value [2] was “reduced” and the “reduction of HYP content” value ([2]; all dosing regimens) was > 30%. The “DHLNL formation” value ([2]; all groups with therapeutic treatment) was “significant reduction”, the “PYD” value ([2]; all groups, only high dose q.d. statistically significant) was “different degrees of reduction” and the “reduction of collagen accumulation (Picrosirius red)” value ([2]; both of the daily dosing groups) was “up to 51%”. For the same compound, the “DHLNL/HYP ratio increase” value ([2]; crosslink normalized relative to hydroxyproline content) was “reversed”, the “DPD crosslinks” value ([2]; high dose q.d. treatment) was “significantly reduced” and the “liver injury, ALT and AST” value ([2]; high dose q.d. treatment compared with the CCl4 treated animals) was “significantly dampened”. The “immature crosslink formation (DHLNL + HLNL)” value ([2]; therapeutic treatment, compared with the CCl4 treated animals) was “substantially reduced”, the “% inhibition” value (Adrenergic β2) was -5% and the IC50 (Recombinant human LOXL1) was 1410 nM. The “pIC50 ± SD” value (Recombinant human LOXL1) was 5.8 ± 0.23, the IC50 (Recombinant dog LOXL2) was 9 nM and the “pIC50 ± SD” value (Recombinant dog LOXL2) was 8.04 ± 0.05. The IC50 (Recombinant mouse LOXL2) was 21 nM, the “pIC50 ± SD” value (Recombinant mouse LOXL2) was 7.7 ± 0.2 and the “% inhibition” value (Cannabinoid CB1) was 17%. The “% inhibition” value (Dopamine D2S) was 10%, the “% inhibition” value [3] was 15% and the “% inhibition” value (Nicotinic Acetylcholine) was 16%. The “% inhibition” value (Muscarinic M2) was 58%.
